The nature of assay [1]: Cytotoxicity against human MES-SA/Dx5-Rx1 cells. In kind it is functional, cell-based.
The nature of assay [2]: Cytotoxicity against human MES-SA cells. In kind it is functional, cell-based.
For assay [3], the system named is MES-SA. The assay is described as follows: Resistance ratio of IC50 for human MES-SA/Dx5-Rx1 cells to IC50 for human MES-SA cells. In kind it is functional.

These results are taken from ChEMBL document CHEMBL2203221, “Atom-based enumeration: new eribulin analogues with low susceptibility to P-glycoprotein-mediated drug efflux” (Bioorg Med Chem Lett, 2012).

Structures are written as SMILES.

Broadly, the IC50 is the concentration that inhibits the measured activity by half. Regarding `C=C1C[C@@H]2CC[C@@]34C[C@H]5O[C@@H]6[C@@H](O3)[C@H]3O[C@H](CC[C@@H]3O[C@H]6[C@H]5O4)CC(=O)C[C@@H]3[C@@H](OC)[C@@H](C[C@H](O)CO)O[C@H]3C[C@H]3O[C@@H](CC[C@@H]1O2)C[C@@H](C)C3=C`, the IC50 in assay [1] was 6.5 nM; in assay [2] it was 0.03 nM. The “Ratio IC50” value in assay [3] is 220.
Taken in the same sequence, the figures for `C=C1C[C@@H]2CC[C@@]34C[C@H]5O[C@@H]6[C@@H](O3)[C@H]3O[C@H](CC[C@@H]3O[C@H]6[C@H]5O4)CC(=O)C[C@@H]3[C@@H](OC)[C@@H](C[C@H](O)COC)O[C@H]3C[C@H]3O[C@@H](CC[C@@H]1O2)C[C@@H](C)C3=C` were 2.8 nM, 0.17 nM and 17.
Taken in the same sequence, the figures for `C=C1C[C@@H]2CC[C@@]34C[C@H]5O[C@@H]6[C@@H](O3)[C@H]3O[C@H](CC[C@@H]3O[C@H]6[C@H]5O4)CC(=O)C[C@@H]3[C@@H](OC)[C@@H](CCO)O[C@H]3C[C@H]3O[C@@H](CC[C@@H]1O2)C[C@@H](C)C3=C` were 100 nM, 3 nM and 33.
Regarding `C=C1C[C@@H]2CC[C@@]34C[C@H]5O[C@@H]6[C@@H](O3)[C@H]3O[C@H](CC[C@@H]3O[C@H]6[C@H]5O4)CC(=O)C[C@@H]3[C@@H](OC)[C@@H](CC(C)O)O[C@H]3C[C@H]3O[C@@H](CC[C@@H]1O2)C[C@@H](C)C3=C` (stereo not given in full), the IC50 in assay [1] was determined as 4.8 nM; in assay [2], 0.29 nM. Besides, the “Ratio IC50” value in assay [3] is recorded as 17.
Consider `C=C1C[C@@H]2CC[C@@]34C[C@H]5O[C@@H]6[C@@H](O3)[C@H]3O[C@H](CC[C@@H]3O[C@H]6[C@H]5O4)CC(=O)C[C@@H]3[C@@H](OC)[C@@H](CC(O)CCCC)O[C@H]3C[C@H]3O[C@@H](CC[C@@H]1O2)C[C@@H](C)C3=C` (stereo not given in full), for which the figures for the 50% inhibitory concentration (IC50) in assay [1] and in assay [2] were 0.91 nM and 0.22 nM, respectively. Further, the “Ratio IC50” value in assay [3] came to 4.2.
For `C=C1C[C@@H]2CC[C@@]34C[C@H]5O[C@@H]6[C@@H](O3)[C@H]3O[C@H](CC[C@@H]3O[C@H]6[C@H]5O4)CC(=O)C[C@@H]3[C@@H](OC)[C@@H](CC(O)CCCCCC)O[C@H]3C[C@H]3O[C@@H](CC[C@@H]1O2)C[C@@H](C)C3=C` (stereo not given in full), in that order: 2.1 nM, 0.46 nM and 4.6.
For `C=C1C[C@@H]2CC[C@@]34C[C@H]5O[C@@H]6[C@@H](O3)[C@H]3O[C@H](CC[C@@H]3O[C@H]6[C@H]5O4)CC(=O)C[C@@H]3[C@@H](OC)[C@@H](CC(O)CCCCCCCC)O[C@H]3C[C@H]3O[C@@H](CC[C@@H]1O2)C[C@@H](C)C3=C` (stereo not given in full), in that order: 5.6 nM, 0.77 nM and 7.2.
Taken in the same sequence, the figures for `C=C1C[C@@H]2CC[C@@]34C[C@H]5O[C@H]6[C@@H](O3)[C@H]3O[C@H](CC[C@@H]3O[C@H]6[C@H]5O4)CC(=O)C[C@@H]3[C@@H](OC)[C@@H](C[C@H](O)CN)O[C@H]3C[C@H]3O[C@@H](CC[C@@H]1O2)C[C@@H](C)C3=C.CS(=O)(=O)O` [ERIBULIN MESYLATE] were 3100 nM, 1.7 nM and 1800.
As for `CC(=O)O[C@H]1C(=O)[C@@]2(C)[C@H]([C@H](OC(=O)c3ccccc3)[C@]3(O)C[C@H](OC(=O)[C@H](O)[C@@H](NC(=O)c4ccccc4)c4ccccc4)C(C)=C1C3(C)C)[C@]1(OC(C)=O)CO[C@@H]1C[C@@H]2O` [PACLITAXEL], the IC50 in assay [1] is > 1000 nM.
